Assay results taken from PMC3010440 (Journal of ethnopharmacology, 2010).
Values joined by “and” are separate entries in the source; they are usually repeats but may differ in a detail not shown here. Equal entries are not always repeated. Where two headings read alike, the source gives them in different places.

How the values were obtained:
Assay type in all cases: cell-based
[1] = tested on: Plasmodium falciparum D10; assay: Antiplasmodial pLDH assay, chloroquine-sensitive strain D10
[2] = tested on: Chinese Hamster Ovarian (CHO) cell line; assay: Cytotoxicity MTT assay; settings: for CHO Cell line (IC50) / IC50: triplicate; for Selectivity index (SI): SI = IC50 CHO / IC50 D10; for IC50: read-out: CHO Cell line (IC50)
[3] = tested on: Plasmodium falciparum Dd2; assay: Antiplasmodial pLDH assay, chloroquine-resistant strain Dd2; settings: for Resistance index (RI): RI = IC50 Dd2 / IC50 D10
[4] = CQ-sensitive D10 strain, pLDH, triplicate, ten point dose response
[5] = read-out: Plasmodium falciparum D10 (IC50), CQ-sensitive D10 strain, pLDH, triplicate, ten point dose response
[6] = CQ-resistant Dd2 strain, pLDH, triplicate, ten point dose response
[7] = read-out: Plasmodium falciparum Dd2: IC50, CQ-resistant Dd2 strain, pLDH, triplicate, ten point dose response
[8] = Plasmodium falciparum, D10, read-out: Plasmodium falciparum D10 (IC50)
[9] = Plasmodium falciparum, DD2, read-out: Plasmodium falciparum Dd2: IC50

Row | Compound | Plasmodium falciparum D10 (IC50) [1, 4] [µg/mL] | IC50 [1, 5] [µM] | CHO Cell line (IC50) ([2]; CHO cells, MTT) [µg/mL] | Selectivity index (SI) [2] | IC50 ([2]; CHO cells, MTT) [µM] | Plasmodium falciparum Dd2: IC50 [3, 6] [µg/mL] | Resistance index (RI) [3] | IC50 [3, 7] [µM] | IC50 [1, 8] | IC50 [3, 9] | Cytotoxicity (in words) ([2]; CHO cells, MTT) | Cytotoxicity (in words) [2]
1 | C=C1C(=O)O[C@@H]2C3O[C@]3(C)CC/C=C(\C)C[C@@H](OC(C)=O)[C@@H]12 (stereo partly drawn) [Compound 8, lipiferolide] | 1.8 ± 0.7 | 5.9 ± 2.3 | 1.4 ± 0.2 | 0.8 | 4.6 ± 0.7 | 2.3 ± 0.1 | 1.3 | 7.5 ± 0.3 |  |  |  | 
2 | CCN(CC)CCCC(C)Nc1ccnc2cc(Cl)ccc12 (stereo not drawn) [Chloroquine, Chloroquine diphosphate, reference compound] |  |  |  |  |  |  |  |  | 0.01 µg/mL and 30 nM | 0.07 µg/mL and 230 nM |  | 
3 | COc1cc2c(cc1OC)-c1c(OC)c(OC)cc3ccnc(c13)C2=O [Compound 6, oxoglaucine] |  |  |  | > 11 |  |  | 2.3 |  | 9.1 µg/mL and 25.9 µM | 20.8 µg/mL and 59.2 µM | no observable cytotoxicity | 
4 | C=C1C(=O)O[C@H]2[C@H]1[C@H](OC(C)=O)CC(=C)[C@H](OO)CC[C@@]1(C)O[C@H]21 [Compound 7, peroxyferolide] | 6.2 ± 0.1 | 18.3 ± 0.3 | 3.2 ± 0.6 | 0.5 | 9.5 ± 1.8 | 4.3 ± 1.2 | 0.7 | 12.7 ± 3.5 |  |  |  | 
5 | O=C1c2ccccc2-c2c3c(cc4ccnc1c24)OCO3 [Compound 4, liriodenine] |  |  |  | 2.0 |  |  | 1.9 |  | 4.1 µg/mL and 14.9 µM | 7.9 µg/mL and 28.7 µM |  | 
6 | c1ccc2c(c1)C[C@H]1NCCc3cc4c(c-2c31)OCO4 [Compound 5, anonaine] |  |  |  | > 83 |  |  | 4.2 |  | 1.2 µg/mL and 4.5 µM | 5.2 µg/mL and 19.6 µM |  | 
7 | asimilobine [Compound 1] | 1.2 ± 0.1 | 4.5 ± 0.3 | > 100 | > 83 | > 300 | 5.8 ± 1.3 | 4.8 | 21.7 ± 6.3 |  |  |  | 
8 | O[C@@H]1c2ccccc2-c2c3c(cc4c2[C@@H]1NCC4)OCO3 [Compound 2, norushinsunine] | 29.6 ± 3.9 | 105 ± 13.9 | > 100 | > 3 | > 300 | 30.9 ± 2.3 | 1.0 | 110 ± 8.1 |  |  |  | no observable cytotoxicity
9 | COc1cc2c(cc1OC)-c1c(OC)c(OC)cc3c1[C@H](C2)NCC3 [Compound 3, norglaucine] | 22.0 ± 2.8 | 64.4 ± 8.2 | > 100 | > 5 | > 300 | 32.2 ± 1.3 | 1.5 | 94.3 ± 3.8 |  |  | no observable cytotoxicity | 
